Experimental data taken from patent US11535611B2, “Pyrazolo[3,4-B]pyridines and imidazo[1,5-B]pyridazines as PDE1 inhibitors” (H. Lundbeck A/S, priority 2017, dated 2022).

Key:
Format in all cases: biochemical
PDE1A = PDE1A (Homo sapiens (Human), UniProt P54750); assay: PDE1 inhibition assay, PDE1A; settings: for IC50: 15 nM tritium labelled cAMP, 1 hr at room temperature, SPA beads; for inhibition at 10 µM: @ 10 μM compound
Description: (§1) PDE1A, PDE1B and PDE1C assays were performed as follows: the assays were performed in 60 μL samples containing a fixed amount of the PDE1 enzyme (sufficient to convert 20-25% of the cyclic nucleotide substrate), a buffer (50 mM HEPES (4-(2-hydroxyethyl)-1-piperazineethanesulfonic acid) pH 7.6; 10 mM MgCl2; 0.02% Tween20), 0.1 mg/ml BSA (bovine serum albumin), 15 nM tritium labelled cAMP and varying amounts of inhibitors. Reactions were initiated by addition of the cyclic nucleotide substrate, and reactions were allowed to proceed for 1 hr at room temperature before being terminated through mixing with 20 μL (0.2 mg) yttrium silicate SPA beads (PerkinElmer). The beads were allowed to settle for 1 hour in the dark before the plates were counted in a Wallac 1450 Microbeta counter. The measured signals were converted to activity relative to an uninhibited control (100%) and IC50 values were calculated using XIFit (model 205, IDBS).

PDE1C = PDE1C (Homo sapiens (Human), UniProt Q14123); assay: PDE1 inhibition assay, PDE1C; settings: for inhibition at 10 µM: @ 10 μM compound, read-out: PDE1 C, % inhibition @ 10 μM; for IC50: 15 nM tritium labelled cAMP, 1 hr at room temperature, SPA beads, read-out: PDE1 C, IC50
Description: as §1

PDE1B = PDE1B (Homo sapiens (Human), UniProt Q01064); assay: PDE1 inhibition assay, PDE1B; settings: for IC50: 15 nM tritium labelled cAMP, 1 hr at room temperature, SPA beads, read-out: PDE1 B, IC50
Description: as §1

Chain of PDE1A (P54750 whole entry): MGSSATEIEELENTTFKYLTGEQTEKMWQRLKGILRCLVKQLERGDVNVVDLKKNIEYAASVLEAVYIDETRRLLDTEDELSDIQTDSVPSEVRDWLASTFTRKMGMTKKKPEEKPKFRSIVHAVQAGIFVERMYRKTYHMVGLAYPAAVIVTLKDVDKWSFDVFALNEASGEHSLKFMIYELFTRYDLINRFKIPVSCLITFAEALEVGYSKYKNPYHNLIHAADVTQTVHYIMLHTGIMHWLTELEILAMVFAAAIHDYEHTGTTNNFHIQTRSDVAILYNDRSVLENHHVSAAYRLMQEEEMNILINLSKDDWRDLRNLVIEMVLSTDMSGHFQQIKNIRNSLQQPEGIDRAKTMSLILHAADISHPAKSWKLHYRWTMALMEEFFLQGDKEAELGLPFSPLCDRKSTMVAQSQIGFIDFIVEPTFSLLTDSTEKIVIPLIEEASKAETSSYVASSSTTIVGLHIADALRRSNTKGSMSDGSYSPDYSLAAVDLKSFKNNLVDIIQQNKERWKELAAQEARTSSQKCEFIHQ
Chain of PDE1C (Q14123 whole entry): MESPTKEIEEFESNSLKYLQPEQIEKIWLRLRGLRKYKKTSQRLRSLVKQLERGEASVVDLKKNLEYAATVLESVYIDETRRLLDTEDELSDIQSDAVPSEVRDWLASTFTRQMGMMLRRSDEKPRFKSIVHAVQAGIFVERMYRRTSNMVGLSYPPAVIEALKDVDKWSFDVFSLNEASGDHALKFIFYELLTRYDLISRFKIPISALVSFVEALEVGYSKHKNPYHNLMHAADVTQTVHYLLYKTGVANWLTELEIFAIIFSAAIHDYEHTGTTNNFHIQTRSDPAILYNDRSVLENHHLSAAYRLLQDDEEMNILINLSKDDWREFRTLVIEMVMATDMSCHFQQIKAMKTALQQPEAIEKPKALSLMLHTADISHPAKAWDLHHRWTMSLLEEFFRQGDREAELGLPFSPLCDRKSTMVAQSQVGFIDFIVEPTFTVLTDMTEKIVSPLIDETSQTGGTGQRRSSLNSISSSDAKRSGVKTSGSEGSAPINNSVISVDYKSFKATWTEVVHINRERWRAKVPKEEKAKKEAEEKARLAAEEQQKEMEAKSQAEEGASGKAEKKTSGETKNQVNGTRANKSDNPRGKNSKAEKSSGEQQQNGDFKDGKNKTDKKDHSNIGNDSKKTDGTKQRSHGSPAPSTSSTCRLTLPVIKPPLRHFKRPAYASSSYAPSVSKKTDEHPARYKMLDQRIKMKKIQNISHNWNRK
Chain of PDE1B (Q01064 whole entry): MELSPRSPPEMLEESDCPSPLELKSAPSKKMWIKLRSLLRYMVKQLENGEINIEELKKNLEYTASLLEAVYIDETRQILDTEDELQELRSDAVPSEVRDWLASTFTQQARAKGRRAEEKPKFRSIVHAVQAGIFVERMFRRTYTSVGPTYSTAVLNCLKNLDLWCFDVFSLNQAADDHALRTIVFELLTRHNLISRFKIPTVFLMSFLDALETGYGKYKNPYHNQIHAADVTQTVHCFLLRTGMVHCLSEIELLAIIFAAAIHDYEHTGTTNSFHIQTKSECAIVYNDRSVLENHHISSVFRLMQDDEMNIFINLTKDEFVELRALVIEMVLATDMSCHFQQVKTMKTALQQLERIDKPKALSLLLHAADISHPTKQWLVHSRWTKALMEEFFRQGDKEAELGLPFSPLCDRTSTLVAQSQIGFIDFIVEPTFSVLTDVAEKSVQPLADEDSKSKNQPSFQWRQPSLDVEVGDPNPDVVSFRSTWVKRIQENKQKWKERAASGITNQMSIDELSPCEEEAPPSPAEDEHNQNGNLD

SMILES	IC50 (PDE1A)	inhibition at 10 µM (PDE1C)	IC50 (PDE1B)	inhibition at 10 µM (PDE1A)	IC50 (PDE1C)	inhibition at 10 µM (PDE1B; @ 10 μM compound, read-out: PDE1 B, % inhibition @ 10 μM)
CCCn1ncc2nc(-c3cccnc3OCC)cc(N3CCCC3)c21 [Example 18, 5-(2-ethoxy-3-pyridyl)-1-propyl-7-pyrrolidin-1-yl-pyrazolo[4,3-b]pyridine]	637 nM	64%	336 nM			
CC(C)n1ncc2nc(-c3cccnc3)cc(N[C@@H]3CCOC3)c21 [Example 25, 1-isopropyl-5-(3-pyridyl)-N-[(3R)-tetrahydrofuran-3-yl]pyrazolo[4,3-b]pyridin-7-amine]	2160 nM	65%	648 nM			
CC(C)n1ncc2nc(-c3cncnc3)cc(N[C@@H]3CCOC3)c21 [Example 26, 1-isopropyl-5-pyrimidin-5-yl-N-[(3R)-tetrahydrofuran-3-yl]pyrazolo[4,3-b]pyridin-7-amine]		70%	3650 nM	54%		
CC(C)n1ncc2nc(-c3ccccc3)cc(N[C@@H]3CCOC3)c21 [Example 27, 1-isopropyl-5-phenyl-N-[(3R)-tetrahydrofuran-3-yl]pyrazolo[4,3-b]pyridin-7-amine]	2000 nM		690 nM		3550 nM	
COc1ncccc1-c1cc(N[C@@H]2CCOC2)c2c(cnn2C(C)C)n1 [Example 28, 1-isopropyl-5-(2-methoxy-3-pyridyl)-N-[(3R)-tetrahydrofuran-3-yl]pyrazolo[4,3-b]pyridin-7-amine]	533 nM		124 nM		1080 nM	
COc1nc(C)ccc1-c1cc(N[C@@H]2CCOC2)c2c(cnn2C(C)C)n1 [Example 29, 1-isopropyl-5-(2-methoxy-6-methyl-3-pyridyl)-N-[(3R)-tetrahydrofuran-3-yl]pyrazolo[4,3-b]pyridin-7-amine]		68%	1690 nM	31%		
COc1cnccc1-c1cc(N[C@@H]2CCOC2)c2c(cnn2C(C)C)n1 [Example 30, 1-isopropyl-5-(3-methoxy-4-pyridyl)-N-[(3R)-tetrahydrofuran-3-yl]pyrazolo[4,3-b]pyridin-7-amine]	1550 nM		236 nM		2560 nM	
COc1ccncc1-c1cc(N[C@@H]2CCOC2)c2c(cnn2C(C)C)n1 [Example 31, 1-isopropyl-5-(4-methoxy-3-pyridyl)-N-[(3R)-tetrahydrofuran-3-yl]pyrazolo[4,3-b]pyridin-7-amine]		76%	1230 nM	63%		
CC(C)n1ncc2nc(-c3cccc4c3OCO4)cc(N[C@@H]3CCOC3)c21 [Example 32, 5-(1,3-benzodioxol-4-yl)-1-isopropyl-N-[(3R)-tetrahydrofuran-3-yl]pyrazolo[4,3-b]pyridin-7-amine]	1290 nM		284 nM		1200 nM	
CCOc1ccc(-c2cc(N[C@@H]3CCOC3)c3c(cnn3C(C)C)n2)cc1 [Example 33, 5-(4-ethoxyphenyl)-1-isopropyl-N-[(3R)-tetrahydrofuran-3-yl]pyrazolo[4,3-b]pyridin-7-amine]		24%		20%		46%
CCOc1nccc(C)c1-c1cc(N[C@@H]2CCOC2)c2c(cnn2C(C)C)n1 [Example 34, 5-(2-ethoxy-4-methyl-3-pyridyl)-1-isopropyl-N-[(3R)-tetrahydrofuran-3-yl]pyrazolo[4,3-b]pyridin-7-amine]	380 nM		157 nM		580 nM	
CC(C)n1ncc2nc(-c3cnn4ccccc34)cc(N[C@@H]3CCOC3)c21 [Example 35, 1-isopropyl-5-pyrazolo[1,5-a]pyridin-3-yl-N-[(3R)-tetrahydrofuran-3-yl]pyrazolo[4,3-b]pyridin-7-amine]	1620 nM		604 nM		2140 nM	
CC(C)n1ncc2nc(-c3cccnc3OC(C)(C)C)cc(N[C@@H]3CCOC3)c21 [Example 36, 5-(2-tert-butoxy-3-pyridyl)-1-isopropyl-N-[(3R)-tetrahydrofuran-3-yl]pyrazolo[4,3-b]pyridin-7-amine]	260 nM		91 nM		3230 nM	
COc1cccc(Cc2cc(N[C@@H]3CCOC3)c3c(cnn3C(C)C)n2)c1 [Example 37, 1-isopropyl-5-[(3-methoxyphenyl)methyl]-N-[(3R)-tetrahydrofuran-3-yl]pyrazolo[4,3-b]pyridin-7-amine]			1340 nM	60%	1680 nM	
COc1cc(-c2cc(N[C@@H]3CCOC3)c3c(cnn3C(C)C)n2)c(OC)cn1 [Example 38, 5-(2,5-dimethoxy-4-pyridyl)-1-isopropyl-N-[(3R)-tetrahydrofuran-3-yl]pyrazolo[4,3-b]pyridin-7-amine]	1160 nM		308 nM		566 nM	
Cc1cccnc1-c1cc(N[C@@H]2CCOC2)c2c(cnn2C(C)C)n1 [Example 39, 1-isopropyl-5-(3-methyl-2-pyridyl)-N-[(3R)-tetrahydrofuran-3-yl]pyrazolo[4,3-b]pyridin-7-amine]		59%	1890 nM	61%		
COc1cccnc1-c1cc(N[C@@H]2CCOC2)c2c(cnn2C(C)C)n1 [Example 40, 1-isopropyl-5-(3-methoxy-2-pyridyl)-N-[(3R)-tetrahydrofuran-3-yl]pyrazolo[4,3-b]pyridin-7-amine]		26%	2140 nM	81%		
CC(C)n1ncc2nc(-c3ccccc3C#N)cc(N[C@@H]3CCOC3)c21 [Example 41, 2-[1-isopropyl-7-[[(3R)-tetrahydrofuran-3-yl]amino]pyrazolo[4,3-b]pyridin-5-yl]benzonitrile]	951 nM		248 nM		1710 nM	
CC(C)n1ncc2nc(-c3cccc4c3OCCO4)cc(N[C@@H]3CCOC3)c21 [Example 42, 5-(2,3-dihydro-1,4-benzodioxin-5-yl)-1-isopropyl-N-[(3R)-tetrahydrofuran-3-yl]pyrazolo[4,3-b]pyridin-7-amine]	1570 nM	68%	546 nM			
CC(C)n1ncc2nc(Cc3ccc(F)cc3)cc(N[C@@H]3CCOC3)c21 [Example 43, 5-[(4-fluorophenyl)methyl]-1-isopropyl-N-[(3R)-tetrahydrofuran-3-yl]pyrazolo[4,3-b]pyridin-7-amine]	2860 nM		1220 nM		621 nM	
CC(C)n1ncc2nc(-c3cncc(C#N)c3)cc(N[C@@H]3CCOC3)c21 [Example 44, 5-[1-isopropyl-7-[[(3R)-tetrahydrofuran-3-yl]amino]pyrazolo[4,3-b]pyridin-5-yl]pyridine-3-carbonitrile]		47%	4010 nM	33%		
COCc1cccc(-c2cc(N[C@@H]3CCOC3)c3c(cnn3C(C)C)n2)c1 [Example 45, 1-isopropyl-5-[3-(methoxymethyl)phenyl]-N-[(3R)-tetrahydrofuran-3-yl]pyrazolo[4,3-b]pyridin-7-amine]	2480 nM	72%	341 nM			
COc1cncc(-c2cc(N[C@@H]3CCOC3)c3c(cnn3C(C)C)n2)c1 [Example 47, 1-isopropyl-5-(5-methoxy-3-pyridyl)-N-[(3R)-tetrahydrofuran-3-yl]pyrazolo[4,3-b]pyridin-7-amine]	1520 nM		599 nM		1550 nM	
CC(C)n1ncc2nc(-c3cccc(OC(F)F)c3)cc(N[C@@H]3CCOC3)c21 [Example 48, 5-[3-(difluoromethoxy)phenyl]-1-isopropyl-N-[(3R)-tetrahydrofuran-3-yl]pyrazolo[4,3-b]pyridin-7-amine]	1100 nM		384 nM		1730 nM	
COc1ncncc1-c1cc(N[C@@H]2CCOC2)c2c(cnn2C(C)C)n1 [Example 49, 1-isopropyl-5-(4-methoxypyrimidin-5-yl)-N-[(3R)-tetrahydrofuran-3-yl]pyrazolo[4,3-b]pyridin-7-amine]			2670 nM	43%	1870 nM	
COc1cnc(C)c(-c2cc(N[C@@H]3CCOC3)c3c(cnn3C(C)C)n2)c1 [Example 51, 1-isopropyl-5-(5-methoxy-2-methyl-3-pyridyl)-N-[(3R)-tetrahydrofuran-3-yl]pyrazolo[4,3-b]pyridin-7-amine]			3250 nM	20%	3850 nM	
COc1ncc(C)cc1-c1cc(N[C@@H]2CCOC2)c2c(cnn2C(C)C)n1 [Example 52, 1-isopropyl-5-(2-methoxy-5-methyl-3-pyridyl)-N-[(3R)-tetrahydrofuran-3-yl]pyrazolo[4,3-b]pyridin-7-amine]			1320 nM	56%	1820 nM	
CCOc1ccccc1-c1cc(N[C@@H]2CCOC2)c2c(cnn2C(C)C)n1 [Example 53, 5-(2-ethoxyphenyl)-1-isopropyl-N-[(3R)-tetrahydrofuran-3-yl]pyrazolo[4,3-b]pyridin-7-amine]		61%	299 nM	73%		
